Each sequence was assayed on PABPC1 PABC. Conditions: DMS-BM library, bait PABPC1 PABC, prey ATXN2, peptide KSTLNPNAKEFNPRSF; K = wild type, row aa = residue at this position.
Format: binding, human
KSTLNPNAKEFNPRSF K9S (KSTLNPNASEFNPRSF) was tested, and the “DMS-derived PSSM value, position K9” value was 0.05789. With KSTLNPNAKEFNPRSF K9T (KSTLNPNATEFNPRSF) the “DMS-derived PSSM value, position K9” value was 0.02286. In the case of KSTLNPNAKEFNPRSF K9V (KSTLNPNAVEFNPRSF), the “DMS-derived PSSM value, position K9” value was 0.0001287. In the case of KSTLNPNAKEFNPRSF K9W (KSTLNPNAWEFNPRSF), the “DMS-derived PSSM value, position K9” value was 0.002107. In the case of KSTLNPNAKEFNPRSF K9Y (KSTLNPNAYEFNPRSF), the “DMS-derived PSSM value, position K9” value was 0.02328.

Same assay, conditions: DMS-BM library, bait PABPC1 PABC, prey ATXN2, peptide KSTLNPNAKEFNPRSF; L = wild type, row aa = residue at this position
KSTLNPNAKEFNPRSF L4A (KSTANPNAKEFNPRSF) was tested, and the “DMS-derived PSSM value, position L4” value was 0. With KSTLNPNAKEFNPRSF L4D (KSTDNPNAKEFNPRSF) the “DMS-derived PSSM value, position L4” value was 0. With KSTLNPNAKEFNPRSF L4E (KSTENPNAKEFNPRSF) the “DMS-derived PSSM value, position L4” value was 0. In the case of KSTLNPNAKEFNPRSF L4F (KSTFNPNAKEFNPRSF), the “DMS-derived PSSM value, position L4” value was 0. With KSTLNPNAKEFNPRSF L4G (KSTGNPNAKEFNPRSF) the “DMS-derived PSSM value, position L4” value was 0. In the case of KSTLNPNAKEFNPRSF L4H (KSTHNPNAKEFNPRSF), the “DMS-derived PSSM value, position L4” value was 0. With KSTLNPNAKEFNPRSF L4I (KSTINPNAKEFNPRSF) the “DMS-derived PSSM value, position L4” value was 0. For KSTLNPNAKEFNPRSF L4K (KSTKNPNAKEFNPRSF), the “DMS-derived PSSM value, position L4” value was 0. KSTLNPNAKEFNPRSF L4M (KSTMNPNAKEFNPRSF) was tested, and the “DMS-derived PSSM value, position L4” value was 0.3054. For KSTLNPNAKEFNPRSF L4N (KSTNNPNAKEFNPRSF), the “DMS-derived PSSM value, position L4” value was 0. In the case of KSTLNPNAKEFNPRSF L4P (KSTPNPNAKEFNPRSF), the “DMS-derived PSSM value, position L4” value was 0. In the case of KSTLNPNAKEFNPRSF L4Q (KSTQNPNAKEFNPRSF), the “DMS-derived PSSM value, position L4” value was 0. With KSTLNPNAKEFNPRSF L4R (KSTRNPNAKEFNPRSF) the “DMS-derived PSSM value, position L4” value was 0. With KSTLNPNAKEFNPRSF L4S (KSTSNPNAKEFNPRSF) the “DMS-derived PSSM value, position L4” value was 0. KSTLNPNAKEFNPRSF L4T (KSTTNPNAKEFNPRSF) was tested, and the “DMS-derived PSSM value, position L4” value was 0. For KSTLNPNAKEFNPRSF L4V (KSTVNPNAKEFNPRSF), the “DMS-derived PSSM value, position L4” value was 0.01089. In the case of KSTLNPNAKEFNPRSF L4W (KSTWNPNAKEFNPRSF), the “DMS-derived PSSM value, position L4” value was 0. In the case of KSTLNPNAKEFNPRSF L4Y (KSTYNPNAKEFNPRSF), the “DMS-derived PSSM value, position L4” value was 0.

Same assay, conditions: DMS-BM library, bait PABPC1 PABC, prey ATXN2, peptide KSTLNPNAKEFNPRSF; N = wild type, row aa = residue at this position
For KSTLNPNAKEFNPRSF N5A (KSTLAPNAKEFNPRSF), the “DMS-derived PSSM value, position N5” value was 0. In the case of KSTLNPNAKEFNPRSF N5D (KSTLDPNAKEFNPRSF), the “DMS-derived PSSM value, position N5” value was 0. For KSTLNPNAKEFNPRSF N5E (KSTLEPNAKEFNPRSF), the “DMS-derived PSSM value, position N5” value was 0. KSTLNPNAKEFNPRSF N5F (KSTLFPNAKEFNPRSF) was tested, and the “DMS-derived PSSM value, position N5” value was 0. KSTLNPNAKEFNPRSF N5G (KSTLGPNAKEFNPRSF) was tested, and the “DMS-derived PSSM value, position N5” value was 0. In the case of KSTLNPNAKEFNPRSF N5H (KSTLHPNAKEFNPRSF), the “DMS-derived PSSM value, position N5” value was 0. With KSTLNPNAKEFNPRSF N5I (KSTLIPNAKEFNPRSF) the “DMS-derived PSSM value, position N5” value was 0. With KSTLNPNAKEFNPRSF N5K (KSTLKPNAKEFNPRSF) the “DMS-derived PSSM value, position N5” value was 0. In the case of KSTLNPNAKEFNPRSF N5L (KSTLLPNAKEFNPRSF), the “DMS-derived PSSM value, position N5” value was 0. With KSTLNPNAKEFNPRSF N5M (KSTLMPNAKEFNPRSF) the “DMS-derived PSSM value, position N5” value was 0. With KSTLNPNAKEFNPRSF N5P (KSTLPPNAKEFNPRSF) the “DMS-derived PSSM value, position N5” value was 0. In the case of KSTLNPNAKEFNPRSF N5Q (KSTLQPNAKEFNPRSF), the “DMS-derived PSSM value, position N5” value was 0. In the case of KSTLNPNAKEFNPRSF N5R (KSTLRPNAKEFNPRSF), the “DMS-derived PSSM value, position N5” value was 0. KSTLNPNAKEFNPRSF N5S (KSTLSPNAKEFNPRSF) was tested, and the “DMS-derived PSSM value, position N5” value was 0.0715. For KSTLNPNAKEFNPRSF N5T (KSTLTPNAKEFNPRSF), the “DMS-derived PSSM value, position N5” value was 0. For KSTLNPNAKEFNPRSF N5V (KSTLVPNAKEFNPRSF), the “DMS-derived PSSM value, position N5” value was 0. For KSTLNPNAKEFNPRSF N5W (KSTLWPNAKEFNPRSF), the “DMS-derived PSSM value, position N5” value was 0. For KSTLNPNAKEFNPRSF N5Y (KSTLYPNAKEFNPRSF), the “DMS-derived PSSM value, position N5” value was 0.01612. KSTLNPNAKEFNPRSF N7A (KSTLNPAAKEFNPRSF) was tested, and the “DMS-derived PSSM value, position N7” value was 0.01018. KSTLNPNAKEFNPRSF N7D (KSTLNPDAKEFNPRSF) was tested, and the “DMS-derived PSSM value, position N7” value was 0.07378. For KSTLNPNAKEFNPRSF N7E (KSTLNPEAKEFNPRSF), the “DMS-derived PSSM value, position N7” value was 0.03193. With KSTLNPNAKEFNPRSF N7F (KSTLNPFAKEFNPRSF) the “DMS-derived PSSM value, position N7” value was 0.07049. KSTLNPNAKEFNPRSF N7G (KSTLNPGAKEFNPRSF) was tested, and the “DMS-derived PSSM value, position N7” value was 0. For KSTLNPNAKEFNPRSF N7H (KSTLNPHAKEFNPRSF), the “DMS-derived PSSM value, position N7” value was 0.03167. In the case of KSTLNPNAKEFNPRSF N7I (KSTLNPIAKEFNPRSF), the “DMS-derived PSSM value, position N7” value was 0.5578. For KSTLNPNAKEFNPRSF N7K (KSTLNPKAKEFNPRSF), the “DMS-derived PSSM value, position N7” value was 0.007258. With KSTLNPNAKEFNPRSF N7L (KSTLNPLAKEFNPRSF) the “DMS-derived PSSM value, position N7” value was 0.04259. In the case of KSTLNPNAKEFNPRSF N7M (KSTLNPMAKEFNPRSF), the “DMS-derived PSSM value, position N7” value was 0.02788. In the case of KSTLNPNAKEFNPRSF N7P (KSTLNPPAKEFNPRSF), the “DMS-derived PSSM value, position N7” value was 0. With KSTLNPNAKEFNPRSF N7Q (KSTLNPQAKEFNPRSF) the “DMS-derived PSSM value, position N7” value was 0.04334. KSTLNPNAKEFNPRSF N7R (KSTLNPRAKEFNPRSF) was tested, and the “DMS-derived PSSM value, position N7” value was 0.005056. With KSTLNPNAKEFNPRSF N7S (KSTLNPSAKEFNPRSF) the “DMS-derived PSSM value, position N7” value was 0.04398. KSTLNPNAKEFNPRSF N7T (KSTLNPTAKEFNPRSF) was tested, and the “DMS-derived PSSM value, position N7” value was 0.001519. For KSTLNPNAKEFNPRSF N7V (KSTLNPVAKEFNPRSF), the “DMS-derived PSSM value, position N7” value was 0.01745. With KSTLNPNAKEFNPRSF N7W (KSTLNPWAKEFNPRSF) the “DMS-derived PSSM value, position N7” value was 0. KSTLNPNAKEFNPRSF N7Y (KSTLNPYAKEFNPRSF) was tested, and the “DMS-derived PSSM value, position N7” value was 0.00548. With “KSTLNPNAKEFNPRSF N12A (KSTLNPNAKEFAPRSF)” the “DMS-derived PSSM value, position N12” value was 0.1266. In the case of “KSTLNPNAKEFNPRSF N12D (KSTLNPNAKEFDPRSF)”, the “DMS-derived PSSM value, position N12” value was 0.009433. With “KSTLNPNAKEFNPRSF N12E (KSTLNPNAKEFEPRSF)” the “DMS-derived PSSM value, position N12” value was 0.06073. In the case of “KSTLNPNAKEFNPRSF N12F (KSTLNPNAKEFFPRSF)”, the “DMS-derived PSSM value, position N12” value was 0.05323. For “KSTLNPNAKEFNPRSF N12G (KSTLNPNAKEFGPRSF)”, the “DMS-derived PSSM value, position N12” value was 0.02172. In the case of “KSTLNPNAKEFNPRSF N12H (KSTLNPNAKEFHPRSF)”, the “DMS-derived PSSM value, position N12” value was 0.04066. “KSTLNPNAKEFNPRSF N12I (KSTLNPNAKEFIPRSF)” was tested, and the “DMS-derived PSSM value, position N12” value was 0.02863. In the case of “KSTLNPNAKEFNPRSF N12K (KSTLNPNAKEFKPRSF)”, the “DMS-derived PSSM value, position N12” value was 0.009595. In the case of “KSTLNPNAKEFNPRSF N12L (KSTLNPNAKEFLPRSF)”, the “DMS-derived PSSM value, position N12” value was 0. For “KSTLNPNAKEFNPRSF N12M (KSTLNPNAKEFMPRSF)”, the “DMS-derived PSSM value, position N12” value was 0.08333. For “KSTLNPNAKEFNPRSF N12P (KSTLNPNAKEFPPRSF)”, the “DMS-derived PSSM value, position N12” value was 0. In the case of “KSTLNPNAKEFNPRSF N12Q (KSTLNPNAKEFQPRSF)”, the “DMS-derived PSSM value, position N12” value was 0.02863. In the case of “KSTLNPNAKEFNPRSF N12R (KSTLNPNAKEFRPRSF)”, the “DMS-derived PSSM value, position N12” value was 0.008293. In the case of “KSTLNPNAKEFNPRSF N12S (KSTLNPNAKEFSPRSF)”, the “DMS-derived PSSM value, position N12” value was 0.008786. For “KSTLNPNAKEFNPRSF N12T (KSTLNPNAKEFTPRSF)”, the “DMS-derived PSSM value, position N12” value was 0.02601.

Source: PMC12102759 (Protein Science : A Publication of the Protein Society, 2025)
